How the values were obtained:
Test in all cases: KINOMEscan competition binding
Settings in all cases: compound 1.0 µM
OXSR1 (human) = OXSR1 (human) (UniProt O95747)
DYRK1A (human) = DYRK1A (human) (UniProt Q13627)
ROCK1 (human) = ROCK1 (human) (UniProt Q13464)
BRSK1 (human) = BRSK1 (human) (UniProt Q8TDC3)
MAP3K10 (human) = MAP3K10 (human) (UniProt Q02779)
TEC (human) = TEC (human) (UniProt P42680)
NLK (human) = NLK (human) (UniProt Q9UBE8)
INSRR (human) = INSRR (human) (UniProt P14616)
TAOK1 (human) = TAOK1 (human) (UniProt Q7L7X3)
NUAK2 (human) = NUAK2 (human) (UniProt Q9H093)
RIOK3 (human) = RIOK3 (human) (UniProt O14730)
PAK7 (human) = PAK7 (human) (UniProt Q9P286)
HIPK3 (human) = HIPK3 (human) (UniProt Q9H422)
EPHB2 (human) = EPHB2 (human) (UniProt P29323)
CSF1R (human) = CSF1R (human) (UniProt P07333)
NUAK1 (human) = NUAK1 (human) (UniProt O60285)
MAP4K5 (human) = MAP4K5 (human) (UniProt Q9Y4K4)
CDK11B (human) = CDK11B (human) (UniProt P21127)
SYK (human) = SYK (human) (UniProt P43405)
CHEK1 (human) = CHEK1 (human) (UniProt O14757)
STK36 (human) = STK36 (human) (UniProt Q9NRP7)
TGFBR1 (human) = TGFBR1 (human) (UniProt P36897)
[1] = system: EGFR (human), P00533 [L858R]
CAMK4 (human) = CAMK4 (human) (UniProt Q16566)
DDR1 (human) = DDR1 (human) (UniProt Q08345)
RPS6KA2 KD2 (human) = RPS6KA2 KD2 (human) (UniProt Q15349)
ADCK4 (human) = ADCK4 (human) (UniProt Q96D53)
AURKA (human) = AURKA (human) (UniProt O14965)
PIM1 (human) = PIM1 (human) (UniProt P11309)
PRKCD (human) = PRKCD (human) (UniProt Q05655)
BRSK2 (human) = BRSK2 (human) (UniProt Q8IWQ3)
CDK15 (human) = CDK15 (human) (UniProt Q96Q40)
MAPK9 (human) = MAPK9 (human) (UniProt P45984)
MARK3 (human) = MARK3 (human) (UniProt P27448)
IRAK1 (human) = IRAK1 (human) (UniProt P51617)
MAP3K7 (human) = MAP3K7 (human) (UniProt O43318)
MARK1 (human) = MARK1 (human) (UniProt Q9P0L2)
STK38L (human) = STK38L (human) (UniProt Q9Y2H1)
[2] = system: FLT3 (human), P36888 [N841I]
RPS6KB1 (human) = RPS6KB1 (human) (UniProt P23443)
[3] = system: PIK3CA (human), P42336 [C420R]
[4] = target: JAK1 JH2 pseudokinase (human) (UniProt P23458)
DAPK1 (human) = DAPK1 (human) (UniProt P53355)

Chain of CAMK4 (human) (Q16566 whole entry, looked up): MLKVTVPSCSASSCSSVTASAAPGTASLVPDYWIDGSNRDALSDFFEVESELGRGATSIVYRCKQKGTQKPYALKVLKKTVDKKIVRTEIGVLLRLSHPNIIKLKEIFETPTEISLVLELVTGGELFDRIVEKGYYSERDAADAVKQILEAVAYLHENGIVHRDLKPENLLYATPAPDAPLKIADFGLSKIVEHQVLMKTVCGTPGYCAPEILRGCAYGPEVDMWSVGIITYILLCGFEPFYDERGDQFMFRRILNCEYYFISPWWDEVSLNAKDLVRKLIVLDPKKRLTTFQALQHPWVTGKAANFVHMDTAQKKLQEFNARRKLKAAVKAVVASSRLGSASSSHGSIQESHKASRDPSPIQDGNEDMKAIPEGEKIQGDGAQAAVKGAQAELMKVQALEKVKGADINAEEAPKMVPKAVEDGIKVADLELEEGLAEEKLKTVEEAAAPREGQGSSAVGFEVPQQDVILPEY
Chain of BRSK1 (human) (Q8TDC3 whole entry, looked up): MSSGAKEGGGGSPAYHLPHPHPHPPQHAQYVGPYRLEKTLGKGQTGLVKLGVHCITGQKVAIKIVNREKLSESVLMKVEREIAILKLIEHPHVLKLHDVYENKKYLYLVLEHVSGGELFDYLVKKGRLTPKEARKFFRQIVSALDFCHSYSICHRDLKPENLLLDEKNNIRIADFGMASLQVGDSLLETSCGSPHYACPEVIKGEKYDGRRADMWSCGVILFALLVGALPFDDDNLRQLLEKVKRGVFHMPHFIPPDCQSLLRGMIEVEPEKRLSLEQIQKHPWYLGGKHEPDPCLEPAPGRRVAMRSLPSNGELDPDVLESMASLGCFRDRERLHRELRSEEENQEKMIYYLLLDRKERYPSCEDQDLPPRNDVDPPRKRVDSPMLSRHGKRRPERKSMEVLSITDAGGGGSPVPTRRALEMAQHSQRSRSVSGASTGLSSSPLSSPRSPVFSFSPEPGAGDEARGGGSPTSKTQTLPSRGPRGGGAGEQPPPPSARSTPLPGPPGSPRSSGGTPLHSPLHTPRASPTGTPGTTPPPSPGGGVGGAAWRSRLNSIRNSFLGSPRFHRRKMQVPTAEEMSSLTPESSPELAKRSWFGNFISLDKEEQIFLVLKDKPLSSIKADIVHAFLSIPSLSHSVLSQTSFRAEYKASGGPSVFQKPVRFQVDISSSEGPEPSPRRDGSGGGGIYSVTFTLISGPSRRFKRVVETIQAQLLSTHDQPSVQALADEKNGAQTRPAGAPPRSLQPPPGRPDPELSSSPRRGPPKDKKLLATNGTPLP
Chain of PIK3CA (human), P42336 [C420R] (P42336 whole entry C420R, looked up): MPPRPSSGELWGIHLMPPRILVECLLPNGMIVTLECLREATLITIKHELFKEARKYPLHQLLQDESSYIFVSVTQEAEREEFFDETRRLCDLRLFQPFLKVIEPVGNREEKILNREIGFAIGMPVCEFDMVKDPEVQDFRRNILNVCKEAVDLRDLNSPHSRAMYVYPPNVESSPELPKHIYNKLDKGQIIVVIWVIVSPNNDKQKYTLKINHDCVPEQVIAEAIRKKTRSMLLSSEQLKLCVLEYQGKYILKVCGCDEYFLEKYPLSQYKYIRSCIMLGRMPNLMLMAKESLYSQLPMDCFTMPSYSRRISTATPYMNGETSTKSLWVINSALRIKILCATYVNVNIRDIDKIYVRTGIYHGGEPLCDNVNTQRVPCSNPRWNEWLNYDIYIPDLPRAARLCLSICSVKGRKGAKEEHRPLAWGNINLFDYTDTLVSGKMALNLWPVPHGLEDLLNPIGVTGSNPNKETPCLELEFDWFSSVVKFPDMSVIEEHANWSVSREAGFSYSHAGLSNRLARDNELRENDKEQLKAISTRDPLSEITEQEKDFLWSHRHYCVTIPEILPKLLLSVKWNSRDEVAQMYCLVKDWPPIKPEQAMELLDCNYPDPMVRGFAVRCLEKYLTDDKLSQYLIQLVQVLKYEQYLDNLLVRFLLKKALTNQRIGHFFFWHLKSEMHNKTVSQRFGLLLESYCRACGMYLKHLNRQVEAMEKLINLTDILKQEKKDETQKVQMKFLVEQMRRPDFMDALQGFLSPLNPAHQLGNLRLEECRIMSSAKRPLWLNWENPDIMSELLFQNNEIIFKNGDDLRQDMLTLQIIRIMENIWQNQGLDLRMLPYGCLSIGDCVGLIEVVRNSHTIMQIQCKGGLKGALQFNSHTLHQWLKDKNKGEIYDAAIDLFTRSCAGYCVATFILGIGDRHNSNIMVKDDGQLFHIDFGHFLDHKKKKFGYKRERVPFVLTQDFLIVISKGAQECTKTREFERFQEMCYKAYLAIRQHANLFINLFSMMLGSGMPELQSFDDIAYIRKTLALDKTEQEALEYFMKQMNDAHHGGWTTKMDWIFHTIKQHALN
Chain of NUAK1 (human) (O60285 whole entry, looked up): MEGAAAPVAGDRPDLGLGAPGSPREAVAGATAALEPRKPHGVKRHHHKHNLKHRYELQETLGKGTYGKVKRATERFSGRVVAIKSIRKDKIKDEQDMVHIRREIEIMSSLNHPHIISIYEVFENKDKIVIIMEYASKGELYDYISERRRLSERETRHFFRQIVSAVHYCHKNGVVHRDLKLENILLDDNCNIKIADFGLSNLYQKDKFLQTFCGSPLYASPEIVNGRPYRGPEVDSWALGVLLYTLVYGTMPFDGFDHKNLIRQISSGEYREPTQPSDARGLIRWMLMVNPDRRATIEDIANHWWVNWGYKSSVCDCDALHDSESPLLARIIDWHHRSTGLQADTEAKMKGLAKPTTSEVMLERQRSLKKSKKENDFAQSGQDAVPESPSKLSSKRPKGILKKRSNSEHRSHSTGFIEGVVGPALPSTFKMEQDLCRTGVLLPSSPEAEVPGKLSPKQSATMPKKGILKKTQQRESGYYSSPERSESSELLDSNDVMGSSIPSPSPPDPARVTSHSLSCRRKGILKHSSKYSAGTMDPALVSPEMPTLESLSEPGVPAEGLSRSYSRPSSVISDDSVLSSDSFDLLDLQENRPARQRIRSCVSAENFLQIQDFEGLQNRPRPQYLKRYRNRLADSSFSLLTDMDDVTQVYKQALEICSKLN
Chain of MAP4K5 (human) (Q9Y4K4 whole entry, looked up): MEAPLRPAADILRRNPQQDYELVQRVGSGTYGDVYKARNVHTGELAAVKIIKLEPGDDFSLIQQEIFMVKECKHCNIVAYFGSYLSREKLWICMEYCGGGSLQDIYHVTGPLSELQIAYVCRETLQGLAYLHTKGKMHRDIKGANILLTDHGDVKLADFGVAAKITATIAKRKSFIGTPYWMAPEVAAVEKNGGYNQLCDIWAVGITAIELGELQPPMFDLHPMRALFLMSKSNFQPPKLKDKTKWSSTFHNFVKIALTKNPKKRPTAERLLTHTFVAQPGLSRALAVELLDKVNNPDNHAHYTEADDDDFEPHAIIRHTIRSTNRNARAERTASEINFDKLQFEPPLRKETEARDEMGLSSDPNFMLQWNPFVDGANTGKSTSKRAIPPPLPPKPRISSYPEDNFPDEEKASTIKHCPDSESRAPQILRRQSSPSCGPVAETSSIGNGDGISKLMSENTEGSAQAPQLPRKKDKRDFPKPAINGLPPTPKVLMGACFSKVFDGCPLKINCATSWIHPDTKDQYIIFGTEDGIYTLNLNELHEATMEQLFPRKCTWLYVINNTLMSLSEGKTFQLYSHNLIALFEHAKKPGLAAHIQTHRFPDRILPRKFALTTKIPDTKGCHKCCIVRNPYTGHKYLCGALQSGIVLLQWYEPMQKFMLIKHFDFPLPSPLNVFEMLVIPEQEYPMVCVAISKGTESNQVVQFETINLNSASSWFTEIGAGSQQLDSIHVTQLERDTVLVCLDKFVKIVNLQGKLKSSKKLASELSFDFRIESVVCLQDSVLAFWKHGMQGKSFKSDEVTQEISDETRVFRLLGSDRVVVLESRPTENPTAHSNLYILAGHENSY
Chain of EPHB2 (human) (P29323 whole entry, looked up): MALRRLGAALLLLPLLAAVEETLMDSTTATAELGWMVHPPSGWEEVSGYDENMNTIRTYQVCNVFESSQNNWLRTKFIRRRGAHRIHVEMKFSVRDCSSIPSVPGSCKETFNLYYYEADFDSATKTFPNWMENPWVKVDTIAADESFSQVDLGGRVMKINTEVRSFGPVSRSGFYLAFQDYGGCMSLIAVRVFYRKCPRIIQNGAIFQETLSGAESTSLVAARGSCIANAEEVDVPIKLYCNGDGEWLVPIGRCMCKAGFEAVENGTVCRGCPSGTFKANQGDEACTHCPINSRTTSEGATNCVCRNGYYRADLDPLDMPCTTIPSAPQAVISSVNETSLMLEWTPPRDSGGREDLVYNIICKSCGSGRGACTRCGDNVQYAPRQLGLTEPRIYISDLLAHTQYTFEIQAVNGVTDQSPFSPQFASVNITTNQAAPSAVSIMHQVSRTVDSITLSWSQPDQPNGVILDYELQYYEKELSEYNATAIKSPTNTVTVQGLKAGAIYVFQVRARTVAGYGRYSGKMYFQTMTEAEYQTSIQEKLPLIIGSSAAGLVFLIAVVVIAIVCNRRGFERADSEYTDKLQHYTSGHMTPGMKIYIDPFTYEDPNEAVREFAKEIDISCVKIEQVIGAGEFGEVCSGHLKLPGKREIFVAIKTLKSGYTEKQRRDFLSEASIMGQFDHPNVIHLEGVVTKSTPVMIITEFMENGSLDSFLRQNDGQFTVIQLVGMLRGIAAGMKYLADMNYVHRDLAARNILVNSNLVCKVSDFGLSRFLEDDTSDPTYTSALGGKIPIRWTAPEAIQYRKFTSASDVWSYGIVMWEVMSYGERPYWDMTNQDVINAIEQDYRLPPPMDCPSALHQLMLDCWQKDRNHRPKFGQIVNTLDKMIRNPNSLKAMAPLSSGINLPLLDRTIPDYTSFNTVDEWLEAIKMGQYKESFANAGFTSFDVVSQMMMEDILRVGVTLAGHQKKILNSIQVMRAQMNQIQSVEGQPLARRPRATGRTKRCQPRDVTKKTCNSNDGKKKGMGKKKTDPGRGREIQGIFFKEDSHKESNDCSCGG

CN(C)C/C=C/C(=O)Nc1cccc(C(=O)Nc2ccc(Nc3nccc(-c4c(-c5ccccc5)nn5ccccc45)n3)cc2)c1
kinase still bound, per cent of control (OXSR1 (human)): 100%
kinase still bound, per cent of control (DYRK1A (human)): 90%
kinase still bound, per cent of control (ROCK1 (human)): 59%
kinase still bound, per cent of control (BRSK1 (human)): 86%
kinase still bound, per cent of control (MAP3K10 (human)): 100%
kinase still bound, per cent of control (TEC (human)): 100%
kinase still bound, per cent of control (NLK (human)): 12%
kinase still bound, per cent of control (INSRR (human)): 97%
kinase still bound, per cent of control (TAOK1 (human)): 40%
kinase still bound, per cent of control (NUAK2 (human)): 89%
kinase still bound, per cent of control (RIOK3 (human)): 97%
kinase still bound, per cent of control (PAK7 (human)): 92%
kinase still bound, per cent of control (HIPK3 (human)): 100%
kinase still bound, per cent of control (EPHB2 (human)): 67%
kinase still bound, per cent of control (CSF1R (human)): 6%
kinase still bound, per cent of control (NUAK1 (human)): 83%
kinase still bound, per cent of control (MAP4K5 (human)): 27%
kinase still bound, per cent of control (CDK11B (human)): 43%
kinase still bound, per cent of control (SYK (human)): 82%
kinase still bound, per cent of control (CHEK1 (human)): 100%
kinase still bound, per cent of control (STK36 (human)): 2.2%
kinase still bound, per cent of control (TGFBR1 (human)): 12%
kinase still bound, per cent of control [1]: 0.8%
kinase still bound, per cent of control (CAMK4 (human)): 100%
kinase still bound, per cent of control (DDR1 (human)): 0%
kinase still bound, per cent of control (RPS6KA2 KD2 (human)): 82%
kinase still bound, per cent of control (ADCK4 (human)): 0%
kinase still bound, per cent of control (AURKA (human)): 28%
kinase still bound, per cent of control (PIM1 (human)): 84%
kinase still bound, per cent of control (PRKCD (human)): 100%
kinase still bound, per cent of control (BRSK2 (human)): 100%
kinase still bound, per cent of control (CDK15 (human)): 100%
kinase still bound, per cent of control (MAPK9 (human)): 0%
kinase still bound, per cent of control (MARK3 (human)): 75%
kinase still bound, per cent of control (IRAK1 (human)): 2%
kinase still bound, per cent of control (MAP3K7 (human)): 47%
kinase still bound, per cent of control (MARK1 (human)): 100%
kinase still bound, per cent of control (STK38L (human)): 100%
kinase still bound, per cent of control [2]: 4%
kinase still bound, per cent of control (RPS6KB1 (human)): 83%
kinase still bound, per cent of control [3]: 100%
kinase still bound, per cent of control [4]: 79%
kinase still bound, per cent of control (DAPK1 (human)): 94%

— the kinase profiling compilation of Christmann-Franck et al. (2016)
